In the supplement of paper PMC13207355:

Key:
Details in all cases: exposure time: 72 h
FT3469 [1] = normal neural stem cell line; test: surviving fraction (nuclei count normalised to DMSO); higher = more cells surviving (less toxic)
E57 [2] = patient-derived glioblastoma stem cells of mesenchymal subtype; test: as above
E21 [3] = patient-derived glioblastoma stem cells of mesenchymal subtype; test: as above
E31 [4] = patient-derived glioblastoma stem cells of proneural subtype; test: as above
E13 [5] = patient-derived glioblastoma stem cells of classical subtype; test: as above
E34 [6] = patient-derived glioblastoma stem cells of proneural subtype; test: as above
E28 [7] = patient-derived glioblastoma stem cells of classical subtype; test: as above
FT3469 [8] = test: phenotypic distance (Euclidean, principal components) from DMSO controls (arbitrary units); higher = stronger morphological change
E57 [9] = test: as above
E21 [10] = test: as above
E31 [11] = test: as above
E13 [12] = test: as above
E34 [13] = test: as above
E28 [14] = test: as above
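For phenotypic distance (Euclidean, principal components) from DMSO controls in this document: cell Painting imaging in 384-well plates, CellProfiler features reduced to at least 20 principal components, Euclidean distance versus same-plate DMSO vehicle wells (0.1% v/v), median over six images per well.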
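For surviving fraction (nuclei count normalised to DMSO) in this document: nuclei counted by high-content imaging of Hoechst-stained cells in laminin-coated 384-well plates, relative to 0.1% DMSO vehicle wells, with staurosporine as cell-death control.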

COc1ccc(/C=C\c2cc(OC)c(OC)c(OC)c2)cc1OP(=O)(O)O [Fosbretabulin Disodium]
Details	phenotypic distance	surviving fraction
E13 [5], 4.1 nM	–	0.8
E13 [5], 12.3 nM	–	0.905
E13 [5], 37 nM	–	0.361
E13 [5], 111.1 nM	–	0.241
E13 [5], 333.3 nM	–	0.171
E13 [5], 1000 nM	–	0.175
E13 [5], 3000 nM	–	0.0977
E13 [12], 4.1 nM	1.22	–
E13 [12], 12.3 nM	2.08	–
E13 [12], 37 nM	5.08	–
E13 [12], 111.1 nM	4.95	–
E13 [12], 333.3 nM	5.64	–
E13 [12], 1000 nM	8.31	–
E13 [12], 3000 nM	7.96	–
E21 [3], 4.1 nM	–	0.889
E21 [3], 12.3 nM	–	0.951
E21 [3], 37 nM	–	0.847
E21 [3], 111.1 nM	–	0.415
E21 [3], 333.3 nM	–	0.176
E21 [3], 1000 nM	–	0.101
E21 [3], 3000 nM	–	0.0981
E21 [10], 4.1 nM	0.897	–
E21 [10], 12.3 nM	0.887	–
E21 [10], 37 nM	1.98	–
E21 [10], 111.1 nM	5.67	–
E21 [10], 333.3 nM	6.69	–
E21 [10], 1000 nM	8.1	–
E21 [10], 3000 nM	6.31	–
E28 [7], 4.1 nM	–	1.09
E28 [7], 12.3 nM	–	1
E28 [7], 37 nM	–	0.905
E28 [7], 111.1 nM	–	0.938
E28 [7], 333.3 nM	–	0.894
E28 [7], 1000 nM	–	0.41
E28 [7], 3000 nM	–	0.293
E28 [14], 4.1 nM	0.427	–
E28 [14], 12.3 nM	0.345	–
E28 [14], 37 nM	0.559	–
E28 [14], 111.1 nM	0.674	–
E28 [14], 333.3 nM	1.52	–
E28 [14], 1000 nM	3.18	–
E28 [14], 3000 nM	3.86	–
E31 [4], 4.1 nM	–	0.927
E31 [4], 12.3 nM	–	1.01
E31 [4], 37 nM	–	0.765
E31 [4], 111.1 nM	–	0.917
E31 [4], 333.3 nM	–	0.54
E31 [4], 1000 nM	–	0.123
E31 [4], 3000 nM	–	0.0441
E31 [11], 4.1 nM	0.483	–
E31 [11], 12.3 nM	0.846	–
E31 [11], 37 nM	0.502	–
E31 [11], 111.1 nM	0.681	–
E31 [11], 333.3 nM	1.6	–
E31 [11], 1000 nM	4.42	–
E31 [11], 3000 nM	7.65	–
E34 [6], 4.1 nM	–	0.966
E34 [6], 12.3 nM	–	0.962
E34 [6], 37 nM	–	1.06
E34 [6], 111.1 nM	–	0.942
E34 [6], 333.3 nM	–	0.86
E34 [6], 1000 nM	–	0.521
E34 [6], 3000 nM	–	0.348
E34 [13], 4.1 nM	0.709	–
E34 [13], 12.3 nM	0.552	–
E34 [13], 37 nM	0.5	–
E34 [13], 111.1 nM	0.935	–
E34 [13], 333.3 nM	1.29	–
E34 [13], 1000 nM	3.14	–
E34 [13], 3000 nM	7.56	–
E57 [2], 4.1 nM	–	0.953
E57 [2], 12.3 nM	–	0.934
E57 [2], 37 nM	–	0.943
E57 [2], 111.1 nM	–	0.986
E57 [2], 333.3 nM	–	0.604
E57 [2], 1000 nM	–	0.077
E57 [2], 3000 nM	–	0.0927
E57 [9], 4.1 nM	0.784	–
E57 [9], 12.3 nM	0.887	–
E57 [9], 37 nM	0.575	–
E57 [9], 111.1 nM	1.01	–
E57 [9], 333.3 nM	2.68	–
E57 [9], 1000 nM	5.08	–
E57 [9], 3000 nM	5.09	–
FT3469 [1], 4.1 nM	–	0.907
FT3469 [1], 12.3 nM	–	1.03
FT3469 [1], 37 nM	–	1.03
FT3469 [1], 111.1 nM	–	0.976
FT3469 [1], 333.3 nM	–	0.745
FT3469 [1], 1000 nM	–	0.503
FT3469 [1], 3000 nM	–	0.346
FT3469 [8], 4.1 nM	0.525	–
FT3469 [8], 12.3 nM	0.86	–
FT3469 [8], 37 nM	0.542	–
FT3469 [8], 111.1 nM	0.517	–
FT3469 [8], 333.3 nM	1.3	–
FT3469 [8], 1000 nM	2.97	–
FT3469 [8], 3000 nM	3.41	–

CC1(C)S[C@@H]2[C@H](NC(=O)Cc3ccccc3)C(=O)N2[C@H]1C(=O)O [Benzylpenicillin sodium]
Details	phenotypic distance	surviving fraction
E13 [5], 4.1 nM	–	1.1
E13 [5], 12.3 nM	–	1.14
E13 [5], 37 nM	–	1.07
E13 [5], 111.1 nM	–	1.17
E13 [5], 333.3 nM	–	1.06
E13 [5], 1000 nM	–	1.06
E13 [5], 3000 nM	–	1.08
E13 [12], 4.1 nM	0.664	–
E13 [12], 12.3 nM	1.03	–
E13 [12], 37 nM	0.438	–
E13 [12], 111.1 nM	0.926	–
E13 [12], 333.3 nM	0.678	–
E13 [12], 1000 nM	1.04	–
E13 [12], 3000 nM	0.985	–
E21 [3], 4.1 nM	–	1.06
E21 [3], 12.3 nM	–	1.11
E21 [3], 37 nM	–	1.03
E21 [3], 111.1 nM	–	1.04
E21 [3], 333.3 nM	–	0.968
E21 [3], 1000 nM	–	1.14
E21 [3], 3000 nM	–	0.993
E21 [10], 4.1 nM	0.889	–
E21 [10], 12.3 nM	0.821	–
E21 [10], 37 nM	0.791	–
E21 [10], 111.1 nM	0.688	–
E21 [10], 333.3 nM	4.43	–
E21 [10], 1000 nM	1.31	–
E21 [10], 3000 nM	0.858	–
E28 [7], 4.1 nM	–	1.28
E28 [7], 12.3 nM	–	1.09
E28 [7], 37 nM	–	1.38
E28 [7], 111.1 nM	–	0.946
E28 [7], 333.3 nM	–	1.14
E28 [7], 1000 nM	–	1.12
E28 [7], 3000 nM	–	0.901
E28 [14], 4.1 nM	0.78	–
E28 [14], 12.3 nM	0.57	–
E28 [14], 37 nM	0.958	–
E28 [14], 111.1 nM	0.61	–
E28 [14], 333.3 nM	0.635	–
E28 [14], 1000 nM	0.605	–
E28 [14], 3000 nM	1.19	–
E31 [4], 4.1 nM	–	1.03
E31 [4], 12.3 nM	–	0.949
E31 [4], 37 nM	–	1.1
E31 [4], 111.1 nM	–	1.03
E31 [4], 333.3 nM	–	1.1
E31 [4], 1000 nM	–	0.947
E31 [4], 3000 nM	–	0.879
E31 [11], 4.1 nM	0.966	–
E31 [11], 12.3 nM	0.585	–
E31 [11], 37 nM	0.478	–
E31 [11], 111.1 nM	0.839	–
E31 [11], 333.3 nM	1.16	–
E31 [11], 1000 nM	0.685	–
E31 [11], 3000 nM	1.21	–
E34 [6], 4.1 nM	–	1.11
E34 [6], 12.3 nM	–	0.981
E34 [6], 37 nM	–	1.02
E34 [6], 111.1 nM	–	1.02
E34 [6], 333.3 nM	–	0.906
E34 [6], 1000 nM	–	0.865
E34 [6], 3000 nM	–	0.864
E34 [13], 4.1 nM	0.752	–
E34 [13], 12.3 nM	0.424	–
E34 [13], 37 nM	0.561	–
E34 [13], 111.1 nM	0.473	–
E34 [13], 333.3 nM	0.826	–
E34 [13], 1000 nM	0.717	–
E34 [13], 3000 nM	1.48	–
E57 [2], 4.1 nM	–	1.03
E57 [2], 12.3 nM	–	0.993
E57 [2], 37 nM	–	1
E57 [2], 111.1 nM	–	1.01
E57 [2], 333.3 nM	–	1.04
E57 [2], 1000 nM	–	0.87
E57 [2], 3000 nM	–	0.922
E57 [9], 4.1 nM	0.898	–
E57 [9], 12.3 nM	0.449	–
E57 [9], 37 nM	0.995	–
E57 [9], 111.1 nM	0.845	–
E57 [9], 333.3 nM	1.07	–
E57 [9], 1000 nM	0.999	–
E57 [9], 3000 nM	1.39	–
FT3469 [1], 4.1 nM	–	1.05
FT3469 [1], 12.3 nM	–	1.29
FT3469 [1], 37 nM	–	1.05
FT3469 [1], 111.1 nM	–	1.18
FT3469 [1], 333.3 nM	–	0.99
FT3469 [1], 1000 nM	–	1.27
FT3469 [1], 3000 nM	–	1.12
FT3469 [8], 4.1 nM	0.569	–
FT3469 [8], 12.3 nM	0.961	–
FT3469 [8], 37 nM	1.12	–
FT3469 [8], 111.1 nM	0.565	–
FT3469 [8], 333.3 nM	0.741	–
FT3469 [8], 1000 nM	0.951	–
FT3469 [8], 3000 nM	1.77	–
